Activity calls are given as the source filed them. The calls are words filed in the database; no cut-off is given here.
Legend:
[1] = molecular target: Albumin (Homo sapiens, UniProt P02768); test: Binding affinity to HSA by ITC; assay type: ADME; conditions: isolated protein
[2] = tested on: HEK293; test: Antiproliferative activity against human HEK293 cells assessed as cell viability after 48 hrs by MTT assay; assay type: cell-based; conditions: HEK293, 48 h
[3] = tested on: HepG2; test: Induction of apoptosis in human HepG2 cells assessed as necrotic cells at IC50 after 24 hrs by Annexin V-FITC/propidium iodide staining-based flow cytometric analysis (reference value: […]); assay type: functional
[4] = tested on: MCF7; test: Induction of apoptosis in human MCF7 cells assessed as viable cells at IC50 after 24 hrs by Annexin V-FITC/propidium iodide staining-based flow cytometric analysis (reference value: 98.4%); assay type: functional
[5] = tested on: MCF7; test: Induction of apoptosis in human MCF7 cells assessed as early apoptotic cells at IC50 after 24 hrs by Annexin V-FITC/propidium iodide staining-based flow cytometric analysis (reference value: 1.23%); assay type: functional
[6] = tested on: MDA-MB-435S; test: Induction of ROS generation in human MDA-MB-435S cells at IC50 after 5 to 6 hrs by DCFDA staining-based spectroflourimetric analysis; assay type: functional, cell-based
[7] = molecular target: Calcium/calmodulin-dependent protein kinase type II subunit alpha (Homo sapiens) (UniProt Q9UQM7); test: Inhibition of CAMK2 alpha (unknown origin) at 10 uM after 60 mins by ADP-Glo luminescence assay
[8] = molecular target: Transcription factor HIVEP2 (Homo sapiens) (UniProt P31629); test: Inhibition of MBP2 (unknown origin) at 10 uM after 60 mins by ADP-Glo luminescence assay
[9] = tested on: MOLT-4; test: Growth inhibition of human MOLT4 cells assessed as cell growth at 10 uM after 48 hrs by sulforhodamine B assay relative to control; assay type: functional; conditions: MOLT-4, 48 h, read-out: Activity
[10] = tested on: SR; test: Growth inhibition of human SR cells assessed as cell growth at 10 uM after 48 hrs by sulforhodamine B assay relative to control; assay type: functional; conditions: read-out: Activity
[11] = tested on: EKVX; test: Growth inhibition of human EKVX cells assessed as cell growth at 10 uM after 48 hrs by sulforhodamine B assay relative to control; assay type: functional; conditions: read-out: Activity
[12] = tested on: NCI-H226; test: Growth inhibition of human NCI-H226 cells assessed as cell growth at 10 uM after 48 hrs by sulforhodamine B assay relative to control; assay type: functional; conditions: NCI-H226, 48 h, read-out: Activity
[13] = tested on: NCI-H322M; test: Growth inhibition of human NCI-H322M cells assessed as cell growth at 10 uM after 48 hrs by sulforhodamine B assay relative to control; assay type: functional; conditions: read-out: Activity
[14] = tested on: HCC 2998; test: Growth inhibition of human HCC2998 cells assessed as cell growth at 10 uM after 48 hrs by sulforhodamine B assay relative to control; assay type: functional; conditions: HCC 2998, 48 h, read-out: Activity
[15] = tested on: HCT-116; test: Growth inhibition of human HCT116 cells assessed as cell growth at 10 uM after 48 hrs by sulforhodamine B assay relative to control; assay type: functional; conditions: HCT-116, 48 h, read-out: Activity
[16] = tested on: SW-620; test: Growth inhibition of human SW620 cells assessed as cell growth at 10 uM after 48 hrs by sulforhodamine B assay relative to control; assay type: functional; conditions: SW-620, 48 h, read-out: Activity
[17] = tested on: SF-268; test: Growth inhibition of human SF268 cells assessed as cell growth at 10 uM after 48 hrs by sulforhodamine B assay relative to control; assay type: functional; conditions: SF-268, 48 h, read-out: Activity
[18] = tested on: SF-295; test: Growth inhibition of human SF295 cells assessed as cell growth at 10 uM after 48 hrs by sulforhodamine B assay relative to control; assay type: functional; conditions: SF-295, 48 h, read-out: Activity
[19] = tested on: SF-539; test: Growth inhibition of human SF539 cells assessed as cell growth at 10 uM after 48 hrs by sulforhodamine B assay relative to control; assay type: functional; conditions: SF-539, 48 h, read-out: Activity
[20] = tested on: SNB-19; test: Growth inhibition of human SNB19 cells assessed as cell growth at 10 uM after 48 hrs by sulforhodamine B assay relative to control; assay type: functional; conditions: SNB-19, 48 h, read-out: Activity
[21] = tested on: M14; test: Growth inhibition of human M14 cells assessed as cell growth at 10 uM after 48 hrs by sulforhodamine B assay relative to control; assay type: functional; conditions: M14, 48 h, read-out: Activity
[22] = tested on: MDA-MB-435; test: Growth inhibition of human MDA-MB-435 cells assessed as cell growth at 10 uM after 48 hrs by sulforhodamine B assay relative to control; assay type: functional; conditions: MDA-MB-435, 48 h, read-out: Activity
[23] = tested on: SK-MEL-2; test: Growth inhibition of human SK-MEL-2 cells assessed as cell growth at 10 uM after 48 hrs by sulforhodamine B assay relative to control; assay type: functional; conditions: SK-MEL-2, 48 h, read-out: Activity
[24] = tested on: UACC-62; test: Growth inhibition of human UACC62 cells assessed as cell growth at 10 uM after 48 hrs by sulforhodamine B assay relative to control; assay type: functional; conditions: UACC-62, 48 h, read-out: Activity
[25] = tested on: OVCAR-8; test: Growth inhibition of human OVCAR8 cells assessed as cell growth at 10 uM after 48 hrs by sulforhodamine B assay relative to control; assay type: functional; conditions: OVCAR-8, 48 h, read-out: Activity
[26] = tested on: NCI/ADR-RES; test: Growth inhibition of human NCI/ADR-RES cells assessed as cell growth at 10 uM after 48 hrs by sulforhodamine B assay relative to control; assay type: functional; conditions: read-out: Activity
[27] = tested on: SK-OV-3; test: Growth inhibition of human SKOV3 cells assessed as cell growth at 10 uM after 48 hrs by sulforhodamine B assay relative to control; assay type: functional; conditions: SK-OV-3, 48 h, read-out: Activity
[28] = tested on: 786-0; test: Growth inhibition of human 786-0 cells assessed as cell growth at 10 uM after 48 hrs by sulforhodamine B assay relative to control; assay type: functional; conditions: 786-0, 48 h, read-out: Activity
[29] = tested on: ACHN; test: Growth inhibition of human ACHN cells assessed as cell growth at 10 uM after 48 hrs by sulforhodamine B assay relative to control; assay type: functional; conditions: read-out: Activity
[30] = tested on: TK-10; test: Growth inhibition of human TK10 cells assessed as cell growth at 10 uM after 48 hrs by sulforhodamine B assay relative to control; assay type: functional; conditions: TK-10, 48 h, read-out: Activity
[31] = tested on: PC-3; test: Growth inhibition of human PC3 cells assessed as cell growth at 10 uM after 48 hrs by sulforhodamine B assay relative to control; assay type: functional; conditions: PC-3, 48 h, read-out: Activity
[32] = tested on: MCF7; test: Growth inhibition of human MCF7 cells assessed as cell growth at 10 uM after 48 hrs by sulforhodamine B assay relative to control; assay type: functional; conditions: MCF7, 48 h, read-out: Activity
[33] = tested on: BT-549; test: Growth inhibition of human BT549 cells assessed as cell growth at 10 uM after 48 hrs by sulforhodamine B assay relative to control; assay type: functional; conditions: BT-549, 48 h, read-out: Activity
[34] = tested on: T47D; test: Growth inhibition of human T47D cells assessed as cell growth at 10 uM after 48 hrs by sulforhodamine B assay relative to control; assay type: functional; conditions: read-out: Activity
[35] = tested on: MDA-MB-468; test: Growth inhibition of human MDA-MB-468 cells assessed as cell growth at 10 uM after 48 hrs by sulforhodamine B assay relative to control; assay type: functional; conditions: MDA-MB-468, 48 h, read-out: Activity

Sequence of Calcium/calmodulin-dependent protein kinase type II subunit alpha (Homo sapiens) (Q9UQM7 whole entry): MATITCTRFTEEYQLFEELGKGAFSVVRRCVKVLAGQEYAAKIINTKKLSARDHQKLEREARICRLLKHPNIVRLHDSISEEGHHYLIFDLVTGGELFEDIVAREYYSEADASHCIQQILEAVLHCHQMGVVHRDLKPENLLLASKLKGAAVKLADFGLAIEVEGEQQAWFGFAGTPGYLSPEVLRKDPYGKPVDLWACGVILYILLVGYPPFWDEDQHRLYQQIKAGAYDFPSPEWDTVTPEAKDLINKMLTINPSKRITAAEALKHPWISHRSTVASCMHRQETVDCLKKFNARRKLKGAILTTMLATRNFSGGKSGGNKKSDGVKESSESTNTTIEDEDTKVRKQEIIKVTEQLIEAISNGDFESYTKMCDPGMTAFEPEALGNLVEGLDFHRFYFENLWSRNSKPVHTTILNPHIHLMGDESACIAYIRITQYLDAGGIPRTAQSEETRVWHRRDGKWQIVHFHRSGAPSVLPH
Sequence of Albumin (P02768 whole entry): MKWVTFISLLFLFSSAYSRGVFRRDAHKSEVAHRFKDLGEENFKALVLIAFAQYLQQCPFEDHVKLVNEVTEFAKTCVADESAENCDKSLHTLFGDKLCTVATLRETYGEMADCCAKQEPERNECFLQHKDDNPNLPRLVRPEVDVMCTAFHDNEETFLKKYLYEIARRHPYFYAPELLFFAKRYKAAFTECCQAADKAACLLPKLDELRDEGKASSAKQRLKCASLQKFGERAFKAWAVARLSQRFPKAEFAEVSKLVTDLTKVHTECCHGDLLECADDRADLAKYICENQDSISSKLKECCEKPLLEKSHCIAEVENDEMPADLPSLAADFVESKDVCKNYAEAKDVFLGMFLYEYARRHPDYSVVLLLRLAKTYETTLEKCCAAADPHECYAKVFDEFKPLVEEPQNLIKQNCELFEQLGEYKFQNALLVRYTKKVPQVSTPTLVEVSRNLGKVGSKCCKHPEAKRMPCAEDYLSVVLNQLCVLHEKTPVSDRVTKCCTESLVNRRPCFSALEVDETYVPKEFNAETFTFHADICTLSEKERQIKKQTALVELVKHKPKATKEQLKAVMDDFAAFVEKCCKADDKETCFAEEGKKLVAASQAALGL
Sequence of Transcription factor HIVEP2 (Homo sapiens) (P31629 whole entry): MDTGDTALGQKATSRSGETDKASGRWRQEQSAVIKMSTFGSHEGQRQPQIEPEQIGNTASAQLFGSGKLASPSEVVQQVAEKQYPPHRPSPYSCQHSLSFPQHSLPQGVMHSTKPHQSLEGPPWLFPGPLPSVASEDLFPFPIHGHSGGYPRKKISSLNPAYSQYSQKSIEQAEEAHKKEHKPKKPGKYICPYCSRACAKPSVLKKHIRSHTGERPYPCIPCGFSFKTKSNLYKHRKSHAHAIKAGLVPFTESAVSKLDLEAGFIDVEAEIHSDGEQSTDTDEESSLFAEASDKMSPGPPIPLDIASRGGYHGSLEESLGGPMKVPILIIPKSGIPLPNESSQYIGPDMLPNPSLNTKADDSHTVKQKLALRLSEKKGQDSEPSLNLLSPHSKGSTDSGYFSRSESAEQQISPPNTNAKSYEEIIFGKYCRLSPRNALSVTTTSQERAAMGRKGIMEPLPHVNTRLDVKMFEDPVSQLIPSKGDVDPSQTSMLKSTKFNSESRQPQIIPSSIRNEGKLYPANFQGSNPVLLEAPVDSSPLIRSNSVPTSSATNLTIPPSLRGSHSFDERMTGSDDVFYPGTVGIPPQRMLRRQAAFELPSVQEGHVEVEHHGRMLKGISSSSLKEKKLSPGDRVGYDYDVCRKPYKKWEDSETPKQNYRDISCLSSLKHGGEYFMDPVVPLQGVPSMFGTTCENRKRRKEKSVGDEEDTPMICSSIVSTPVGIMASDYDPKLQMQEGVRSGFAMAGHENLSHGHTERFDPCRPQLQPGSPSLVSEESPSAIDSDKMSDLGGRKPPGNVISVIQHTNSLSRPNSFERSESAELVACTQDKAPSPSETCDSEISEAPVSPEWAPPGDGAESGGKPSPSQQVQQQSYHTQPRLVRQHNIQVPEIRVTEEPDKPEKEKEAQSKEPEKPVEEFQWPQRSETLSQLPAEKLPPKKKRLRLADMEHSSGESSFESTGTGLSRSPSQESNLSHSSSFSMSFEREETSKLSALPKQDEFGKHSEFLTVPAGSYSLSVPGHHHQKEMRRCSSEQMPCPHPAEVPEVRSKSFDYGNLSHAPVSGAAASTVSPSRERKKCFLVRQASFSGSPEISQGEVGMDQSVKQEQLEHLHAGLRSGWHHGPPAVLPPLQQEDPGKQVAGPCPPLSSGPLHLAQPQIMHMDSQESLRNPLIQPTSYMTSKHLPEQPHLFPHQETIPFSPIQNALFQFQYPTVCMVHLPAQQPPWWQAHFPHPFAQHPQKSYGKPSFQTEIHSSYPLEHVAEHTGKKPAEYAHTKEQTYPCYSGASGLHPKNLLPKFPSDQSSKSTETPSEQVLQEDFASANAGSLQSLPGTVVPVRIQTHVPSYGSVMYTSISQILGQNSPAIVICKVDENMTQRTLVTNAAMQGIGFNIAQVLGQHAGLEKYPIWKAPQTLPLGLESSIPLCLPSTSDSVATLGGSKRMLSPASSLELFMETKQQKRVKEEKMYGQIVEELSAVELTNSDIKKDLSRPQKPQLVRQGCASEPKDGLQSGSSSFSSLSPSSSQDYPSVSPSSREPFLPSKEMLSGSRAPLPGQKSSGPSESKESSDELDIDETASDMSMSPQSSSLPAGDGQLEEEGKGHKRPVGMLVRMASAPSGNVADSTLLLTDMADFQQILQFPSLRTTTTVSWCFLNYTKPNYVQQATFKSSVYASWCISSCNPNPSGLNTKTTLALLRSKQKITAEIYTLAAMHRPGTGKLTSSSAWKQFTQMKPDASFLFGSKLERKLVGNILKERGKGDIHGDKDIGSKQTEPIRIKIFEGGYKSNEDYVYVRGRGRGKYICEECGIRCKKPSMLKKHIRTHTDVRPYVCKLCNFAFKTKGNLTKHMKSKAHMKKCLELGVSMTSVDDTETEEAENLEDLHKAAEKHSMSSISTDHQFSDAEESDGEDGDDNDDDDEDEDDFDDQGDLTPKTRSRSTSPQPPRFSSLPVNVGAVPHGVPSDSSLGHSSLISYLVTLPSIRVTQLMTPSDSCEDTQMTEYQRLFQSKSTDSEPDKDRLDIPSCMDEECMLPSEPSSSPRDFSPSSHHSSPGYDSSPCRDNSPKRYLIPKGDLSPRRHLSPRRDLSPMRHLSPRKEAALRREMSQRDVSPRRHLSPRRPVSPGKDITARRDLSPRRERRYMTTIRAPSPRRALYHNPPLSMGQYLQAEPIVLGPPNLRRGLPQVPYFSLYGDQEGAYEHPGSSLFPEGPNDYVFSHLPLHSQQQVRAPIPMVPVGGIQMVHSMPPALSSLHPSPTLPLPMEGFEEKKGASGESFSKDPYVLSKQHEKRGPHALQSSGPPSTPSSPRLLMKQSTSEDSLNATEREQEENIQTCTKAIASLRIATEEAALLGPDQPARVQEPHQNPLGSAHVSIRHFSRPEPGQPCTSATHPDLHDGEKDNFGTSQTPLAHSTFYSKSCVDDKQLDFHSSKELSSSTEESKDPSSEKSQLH

## COc1ccc(Cn2cc(C(=O)N/N=C3/C(=O)Nc4c(C)cccc43)nn2)cc1
[1]
  Ka: 1.27 ×10⁴ /M
[2]
  IC50: 200 µM
[3]
  Activity: 2.11%
[4]
  Activity: 52.6%
[5]
  Activity: 33.5%
[6]
  Activity: Active
[7]
  inhibition: inactive
[8]
  inhibition: inactive
[9]
  growth at 10 µM: 83.5%
[10]
  growth at 10 µM: 76.6%
[11]
  growth at 10 µM: 107%
[12]
  growth at 10 µM: 75.1%
[13]
  growth at 10 µM: 89.6%
[14]
  growth at 10 µM: 101%
[15]
  growth at 10 µM: 7.1%
[16]
  growth at 10 µM: 57.5%
[17]
  growth at 10 µM: 87.3%
[18]
  growth at 10 µM: 111%
[19]
  growth at 10 µM: 80.1%
[20]
  growth at 10 µM: 97.5%
[21]
  growth at 10 µM: 71.9%
[22]
  growth at 10 µM: 82%
[23]
  growth at 10 µM: 91.9%
[24]
  growth at 10 µM: 74.1%
[25]
  growth at 10 µM: 67.6%
[26]
  growth at 10 µM: 71.2%
[27]
  growth at 10 µM: 110%
[28]
  growth at 10 µM: 43.5%
[29]
  growth at 10 µM: 38.2%
[30]
  growth at 10 µM: 56.1%
[31]
  growth at 10 µM: 61.3%
[32]
  growth at 10 µM: 84.9%
[33]
  growth at 10 µM: 103%
[34]
  growth at 10 µM: 81%
[35]
  growth at 10 µM: 89.2%

Reference: ChEMBL document CHEMBL4411296, “Design and development of Isatin-triazole hydrazones as potential inhibitors of microtubule affinity-regulating kinase 4 for the therapeutic management of cell proliferation and metastasis” (Eur J Med Chem, 2019)
